According to ChEMBL document CHEMBL5303573, “Mapping human microbiome drug metabolism by gut bacteria and their genes” (Nature, 2019):

Assays:
[1] = The drug is tested on Bacteroides sp. WH2 strain: WH2 for biotransformation. The drug concentrations were measured before and after a 12-h incubation by liquid-chromatography-coupled mass spectrometry (LC–MS); conditions: bacteroides sp. wh2, 12 h, 2 µM
[2] = The drug is tested on Clostridium scindens strain: ATCC35704 for biotransformation. The drug concentrations were measured before and after a 12-h incubation by liquid-chromatography-coupled mass spectrometry (LC–MS); conditions: 2 µM
[3] = The drug is tested on Bacteroides xylanisolvens strain: DSM18836 for biotransformation. The drug concentrations were measured before and after a 12-h incubation by liquid-chromatography-coupled mass spectrometry (LC–MS); conditions: 2 µM
[4] = The drug is tested on Eubacterium rectale strain: ATCC33656 for biotransformation. The drug concentrations were measured before and after a 12-h incubation by liquid-chromatography-coupled mass spectrometry (LC–MS); conditions: agathobacter rectalis, 2 µM
[5] = The drug is tested on Odoribacter splanchnicus strain: fecal isolate for biotransformation. The drug concentrations were measured before and after a 12-h incubation by liquid-chromatography-coupled mass spectrometry (LC–MS); conditions: 2 µM
[6] = The drug is tested on Eubacterium ventriosum strain: ATCC27560 for biotransformation. The drug concentrations were measured before and after a 12-h incubation by liquid-chromatography-coupled mass spectrometry (LC–MS); assay type: ADME; parameters: dose 2 uM, timepoint 0 vs 12 hours; conditions: 2 µM
[7] = enterocloster bolteae, 12 h, 2 µM
Description: The drug is tested on Clostridium bolteae strain: ATCCBAA-613 for biotransformation. The drug concentrations were measured before and after a 12-h incubation by liquid-chromatography-coupled mass spectrometry (LC–MS)

[8] = bacteroides stercoris, 12 h, 2 µM
Description: The drug is tested on Bacteroides stercoris strain: ATCC43183 for biotransformation. The drug concentrations were measured before and after a 12-h incubation by liquid-chromatography-coupled mass spectrometry (LC–MS)

[9] = bifidobacterium adolescentis, 12 h, 2 µM
Description: The drug is tested on Bifidobacterium adolescentis strain: ATCC 15703 for biotransformation. The drug concentrations were measured before and after a 12-h incubation by liquid-chromatography-coupled mass spectrometry (LC–MS)

[10] = The drug is tested on Eggerthella lenta strain: ATCC25559 for biotransformation. The drug concentrations were measured before and after a 12-h incubation by liquid-chromatography-coupled mass spectrometry (LC–MS); conditions: 2 µM
[11] = limosilactobacillus reuteri cf48-3a, 12 h, 2 µM
Description: The drug is tested on Lactobacillus reuteri CF48-3A strain: BEI HM-102 for biotransformation. The drug concentrations were measured before and after a 12-h incubation by liquid-chromatography-coupled mass spectrometry (LC–MS)

[12] = The drug is tested on Anaerotruncus colihominis strain: DSM17241 for biotransformation. The drug concentrations were measured before and after a 12-h incubation by liquid-chromatography-coupled mass spectrometry (LC–MS); conditions: 2 µM
[13] = The drug is tested on Bifidobacterium breve strain: DSM20213 for biotransformation. The drug concentrations were measured before and after a 12-h incubation by liquid-chromatography-coupled mass spectrometry (LC–MS); conditions: 2 µM
[14] = bacteroides eggerthii, 12 h, 2 µM
Description: The drug is tested on Bacteroides eggerthii strain: DSM20697 for biotransformation. The drug concentrations were measured before and after a 12-h incubation by liquid-chromatography-coupled mass spectrometry (LC–MS)

[15] = The drug is tested on Clostridium asparagiforme strain: DSM15981 for biotransformation. The drug concentrations were measured before and after a 12-h incubation by liquid-chromatography-coupled mass spectrometry (LC–MS); assay type: ADME; parameters: dose 2 uM, timepoint 0 vs 12 hours; conditions: enterocloster asparagiformis, 2 µM
[16] = The drug is tested on Ruminococcus lactaris strain: ATCC29176 for biotransformation. The drug concentrations were measured before and after a 12-h incubation by liquid-chromatography-coupled mass spectrometry (LC–MS); conditions: 2 µM
[17] = The drug is tested on Eubacterium hallii strain: DSM3353 for biotransformation. The drug concentrations were measured before and after a 12-h incubation by liquid-chromatography-coupled mass spectrometry (LC–MS); conditions: anaerobutyricum hallii, 2 µM
[18] = The drug is tested on Bacteroides fragilis strain: ATCC43859 for biotransformation. The drug concentrations were measured before and after a 12-h incubation by liquid-chromatography-coupled mass spectrometry (LC–MS); conditions: 2 µM
[19] = The drug is tested on Bacteroides cellulosilyticus strain: DSM14838 for biotransformation. The drug concentrations were measured before and after a 12-h incubation by liquid-chromatography-coupled mass spectrometry (LC–MS); conditions: 2 µM
[20] = The drug is tested on Bacteroides fragilis strain: HMW615 for biotransformation. The drug concentrations were measured before and after a 12-h incubation by liquid-chromatography-coupled mass spectrometry (LC–MS); conditions: 2 µM

SMILES	Bacterial Biotransformation [1]	Bacterial Biotransformation [2]	Bacterial Biotransformation [3]	Bacterial Biotransformation [4]	Bacterial Biotransformation [5]	Bacterial Biotransformation [6]	Bacterial Biotransformation [7]	Bacterial Biotransformation [8]	Bacterial Biotransformation [9]	Bacterial Biotransformation [10]	Bacterial Biotransformation [11]	Bacterial Biotransformation [12]	Bacterial Biotransformation [13]	Bacterial Biotransformation [14]	Bacterial Biotransformation [15]	Bacterial Biotransformation [16]	Bacterial Biotransformation [17]	Bacterial Biotransformation [18]	Bacterial Biotransformation [19]	Bacterial Biotransformation [20]
C=CCc1ccccc1OCC(O)CNC(C)C (stereo unspecified) [ALPRENOLOL]	Compound NOT metabolized	Compound NOT metabolized	Compound NOT metabolized	Compound NOT metabolized	Compound NOT metabolized	Compound NOT metabolized	Compound NOT metabolized	Compound NOT metabolized	Compound NOT metabolized	Compound NOT metabolized	Compound NOT metabolized	Compound NOT metabolized	Compound NOT metabolized	Compound NOT metabolized	Compound NOT metabolized	Compound NOT metabolized	Compound NOT metabolized	–	–	–
CN1CCN(CC/C=C2/c3ccccc3Sc3ccc(S(=O)(=O)N(C)C)cc32)CC1 [THIOTHIXENE]	Compound NOT metabolized	Compound metabolized	Compound metabolized	Compound NOT metabolized	Compound metabolized	Compound metabolized	Compound metabolized	Compound metabolized	Compound NOT metabolized	Compound NOT metabolized	Compound metabolized	Compound NOT metabolized	Compound metabolized	Compound metabolized	–	Compound metabolized	Compound NOT metabolized	Compound NOT metabolized	Compound metabolized	Compound NOT metabolized
Br.CN(C)CCCC1(c2ccc(F)cc2)OCc2cc(C#N)ccc21 (stereo unspecified) [CITALOPRAM HYDROBROMIDE]	Compound NOT metabolized	Compound NOT metabolized	–	Compound NOT metabolized	–	Compound NOT metabolized	Compound NOT metabolized	Compound NOT metabolized	Compound NOT metabolized	Compound NOT metabolized	Compound NOT metabolized	Compound NOT metabolized	Compound NOT metabolized	Compound NOT metabolized	Compound NOT metabolized	Compound NOT metabolized	Compound NOT metabolized	Compound NOT metabolized	–	Compound NOT metabolized
CC(C)(C)NCC(O)c1cc(Cl)c(N)c(Cl)c1 (stereo unspecified) [CLENBUTEROL]	Compound NOT metabolized	Compound NOT metabolized	Compound NOT metabolized	Compound NOT metabolized	Compound NOT metabolized	Compound NOT metabolized	Compound NOT metabolized	Compound NOT metabolized	Compound NOT metabolized	Compound NOT metabolized	Compound NOT metabolized	Compound NOT metabolized	Compound NOT metabolized	Compound NOT metabolized	–	Compound NOT metabolized	Compound NOT metabolized	Compound NOT metabolized	Compound NOT metabolized	–
